Reference: PubChem BioAssay (NCI)
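Exposure lasted 48 hours, with cells grown in 96-well plates and compounds tested at five concentrations. Abbreviation: GI50, concentration required for 50% inhibition of growth. TGI: concentration producing complete growth inhibition.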

Columns and labels:
Test in all cases: NCI tumour cell line growth inhibition, 48 h; in the data active = GI50 below about 0.43 µM; inactive = the rest
[1] = system: 786-0 renal
[2] = system: A498 renal
[3] = system: A549 NSCLC
[4] = system: ACHN renal
[5] = system: BT-549 breast
[6] = system: CAKI-1 renal
[7] = system: CCRF-CEM leukemia
[8] = system: COLO 205 colon
[9] = system: DU-145 prostate
[10] = system: EKVX NSCLC
[11] = system: HCC-2998 colon
[12] = system: HCT-116 colon
[13] = system: HCT-15 colon
[14] = system: HL-60(TB) leukemia
[15] = system: HOP-62 NSCLC
[16] = system: HOP-92 NSCLC
[17] = system: HS 578T breast
[18] = system: HT29 colon
[19] = system: IGROV1 ovarian
[20] = system: K-562 leukemia
[21] = system: KM12 colon
[22] = system: LOX IMVI melanoma
[23] = system: M14 melanoma
[24] = system: MALME-3M melanoma
[25] = system: MCF7 breast
[26] = system: MDA-MB-231 breast
[27] = system: MDA-MB-435
[28] = system: MOLT-4 leukemia
[29] = system: NCI-H226 lung
[30] = system: NCI-H23 lung
[31] = system: NCI-H460 lung
[32] = system: NCI-H522 lung
[33] = system: NCI/ADR-RES ovarian
[34] = system: OVCAR-3 ovarian
[35] = system: OVCAR-4 ovarian
[36] = system: OVCAR-5 ovarian
[37] = system: OVCAR-8 ovarian
[38] = system: PC-3 prostate
[39] = system: RPMI-8226 leukemia
[40] = system: RXF 393 renal
[41] = system: SF-268 CNS
[42] = system: SF-295 CNS
[43] = system: SF-539 CNS
[44] = system: SK-MEL-2 melanoma
[45] = system: SK-MEL-28 melanoma
[46] = system: SK-MEL-5 melanoma
[47] = system: SK-OV-3 ovarian
[48] = system: SN12C renal
[49] = system: SNB-19 CNS
[50] = system: SNB-75 CNS
[51] = system: SR leukemia
[52] = system: SW-620 colon
[53] = system: T-47D breast
[54] = system: TK-10 renal
[55] = system: U251 CNS
[56] = system: UACC-257 melanoma
[57] = system: UACC-62 melanoma

Cc1nc([C@H]2CC[C@H]3[C@@H]4CCC5=CC(=O)CC[C@]5(C)[C@H]4CC[C@]23C)cs1
inactive: GI50 [1] > 100 µM | GI50 [2] > 53.3 µM | GI50 [3] 5.25 µM | GI50 [4] 7.72 µM | GI50 [5] 1.97 µM | GI50 [6] 2.3 µM | GI50 [7] 7.26 µM | GI50 [8] 5.31 µM | GI50 [9] > 100 µM | GI50 [10] 1.65 µM | GI50 [11] 6.58 µM | GI50 [12] 3.47 µM | GI50 [13] 4.97 µM | GI50 [14] 1.53 µM | GI50 [15] > 100 µM | GI50 [16] > 28.9 µM | GI50 [17] > 66.1 µM | GI50 [18] 5.15 µM | GI50 [19] > 40.3 µM | GI50 [20] 4.7 µM | GI50 [21] 4.72 µM | GI50 [22] 5.09 µM | GI50 [23] 15.9 µM | GI50 [24] 15.2 µM | GI50 [25] 2.78 µM | GI50 [26] > 26.7 µM | GI50 [27] 5.02 µM | GI50 [28] 2.25 µM | GI50 [29] 31.7 µM | GI50 [30] 2.58 µM | GI50 [31] 2.67 µM | GI50 [32] 7.01 µM | GI50 [33] 3.63 µM | GI50 [34] > 22.6 µM | GI50 [35] 3.02 µM | GI50 [36] > 100 µM | GI50 [37] 4.62 µM | GI50 [38] 3.9 µM | GI50 [39] 0.531 µM | GI50 [40] 10.6 µM | GI50 [41] > 27.2 µM | GI50 [42] 2.21 µM | GI50 [43] 18.3 µM | GI50 [44] > 100 µM | GI50 [45] > 100 µM | GI50 [46] 1.45 µM | GI50 [47] > 100 µM | GI50 [48] > 100 µM | GI50 [49] > 100 µM | GI50 [50] > 27 µM | GI50 [51] 0.584 µM | GI50 [52] 7.66 µM | GI50 [53] 1.83 µM | GI50 [54] 3.33 µM | GI50 [55] 5.27 µM | GI50 [56] 3.31 µM | GI50 [57] 4.1 µM
8.97 µM: TGI [5]
> 100 µM: TGI [1] | TGI [2] | TGI [3] | TGI [4] | TGI [6] | TGI [7] | TGI [8] | TGI [9] | TGI [10] | TGI [11] | TGI [12] | TGI [13] | TGI [14] | TGI [15] | TGI [16] | TGI [17] | TGI [18] | TGI [19] | TGI [20] | TGI [21] | TGI [22] | TGI [23] | TGI [24] | TGI [25] | TGI [26] | TGI [27] | TGI [28] | TGI [29] | TGI [30] | TGI [31] | TGI [32] | TGI [33] | TGI [34] | TGI [35] | TGI [36] | TGI [37] | TGI [38] | TGI [40] | TGI [41] | TGI [42] | TGI [43] | TGI [44] | TGI [45] | TGI [46] | TGI [47] | TGI [48] | TGI [49] | TGI [50] | TGI [52] | TGI [53] | TGI [54] | TGI [55] | TGI [56] | TGI [57]
